Consider five compounds from patent publication US20230322721A1 (OSLO UNIVERSITETSSYKEHUS HF, priority 2020, published 2023).

Structures can show the parent of a compound that is named as a salt. Where two headings read alike, the source gives them in different places.

One series deals with TNKS2 (Homo sapiens (Human), UniProt Q9H2K2). Nature of the series: Biochemical IC50 TNKS2. The conditions noted are these: read-out: Biochemical IC50 TNKS2. From the text: (§1) XLfit (idbs) was used to determine the IC50-values in inhibition experiments. The following formula was chosen to fit the data points (Langmuir Binding Isotherm): fit=((A+(B*x))+(((C−B)*(1−exp((−1*D)*x)))/D)), res=(y−fit).
Sequence of TNKS2 (Q9H2K2 whole entry): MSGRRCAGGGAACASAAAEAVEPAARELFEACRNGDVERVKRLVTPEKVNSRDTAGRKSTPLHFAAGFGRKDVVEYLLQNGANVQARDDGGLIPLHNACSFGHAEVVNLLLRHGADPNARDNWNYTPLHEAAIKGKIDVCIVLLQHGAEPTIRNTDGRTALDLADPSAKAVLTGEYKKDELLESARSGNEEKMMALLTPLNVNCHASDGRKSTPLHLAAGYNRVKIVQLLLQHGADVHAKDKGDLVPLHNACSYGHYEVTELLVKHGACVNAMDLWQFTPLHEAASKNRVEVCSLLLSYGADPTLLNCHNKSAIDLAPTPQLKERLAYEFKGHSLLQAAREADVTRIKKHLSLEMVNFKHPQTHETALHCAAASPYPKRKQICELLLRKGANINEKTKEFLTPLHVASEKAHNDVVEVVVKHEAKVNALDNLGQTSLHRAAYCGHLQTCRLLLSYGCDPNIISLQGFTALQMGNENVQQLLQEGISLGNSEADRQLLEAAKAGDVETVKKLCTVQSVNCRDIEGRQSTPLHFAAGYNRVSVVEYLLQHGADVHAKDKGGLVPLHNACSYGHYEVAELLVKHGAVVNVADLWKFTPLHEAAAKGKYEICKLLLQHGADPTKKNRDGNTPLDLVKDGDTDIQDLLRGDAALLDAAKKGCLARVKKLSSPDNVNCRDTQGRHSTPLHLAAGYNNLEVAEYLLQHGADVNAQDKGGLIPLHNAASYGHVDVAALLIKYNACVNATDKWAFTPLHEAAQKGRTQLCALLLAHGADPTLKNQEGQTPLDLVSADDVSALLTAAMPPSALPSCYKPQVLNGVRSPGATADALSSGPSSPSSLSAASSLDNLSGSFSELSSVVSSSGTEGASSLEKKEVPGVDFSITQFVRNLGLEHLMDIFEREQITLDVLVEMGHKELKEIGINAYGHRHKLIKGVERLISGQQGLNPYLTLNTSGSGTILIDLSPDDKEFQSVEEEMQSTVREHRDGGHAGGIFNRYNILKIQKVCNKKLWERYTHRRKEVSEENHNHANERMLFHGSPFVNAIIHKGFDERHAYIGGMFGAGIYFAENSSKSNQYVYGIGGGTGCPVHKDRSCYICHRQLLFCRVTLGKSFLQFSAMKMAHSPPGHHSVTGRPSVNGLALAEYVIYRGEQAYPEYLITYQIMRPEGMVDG

The next series has as its system HEK293. Nature of the series: Cellular IC50 HEK293. Format: cell-based.
Description: as §1

Series [1] in a line: Metabolic stability in mouse liver microsomes (MLM). Conditions: for microsomal CLint at 1 μM / half-life at 1 μM: pH 7.4, 1 μM compound; for half-life at 1 μM: read-out: MLM t1/2 average. In kind it is in vitro ADME. How it is done: (§2) Metabolic stability was investigated in mouse liver microsomes (MLM) and in human liver microsomes (HLM): […] Incubations were performed at 37° C. Control incubations with reference substances were included for each experiment. […] After the last time point, the quench plates were mixed thoroughly and centrifuged for 15 minutes at 3700 rpm and 10° C. (Eppendorf 5804R). The supernatant was transferred to new 96 well plates and subjected to LCMS analysis. The disappearance of the parent compound was determined.
A general note: Liver microsomes are a subcellular fraction often used to study metabolism.

Series [2] can be described thus: Metabolic stability in human liver microsomes (HLM). In kind it is in vitro ADME. The conditions noted are these: for microsomal CLint at 1 μM / half-life at 1 μM: pH 7.4, 1 μM compound; for half-life at 1 μM: read-out: HLM t1/2 average. As to the method:
as §2

[3] abbreviates: Homo sapiens, HEK293; read-out: Cellular IC50 HEK293.
[4] abbreviates: 0.5 mg/ml microsomal protein, 37° C.
Where [5] appears, read: Homo sapiens, HEK293, read-out: Cellular IC50 HEK293.
Where [6] appears, read: 1 μM compound, 0.5 mg/ml microsomal protein, 37° C.

Broadly, the IC50 is the concentration that gives 50% inhibition. One may read the microsomal CLint as a measure of how fast metabolising enzymes remove a compound, apart from limits set by blood flow. `CCOc1ccc(-c2nnc([C@H]3C[C@H](NC(=O)c4cccc5nc(O)cnc45)C3)n2-c2ccccc2F)nc1` [Example 2, Dihydrochloride]: the IC50 was 1.5 nM on TNKS2 and 1.1 nM in the series on HEK293 (setting [3]). The values for the microsomal CLint at 1 μM in series [1] (setting [4]) and in series [2] (setting [4]) were 7 µL/min/mg and 17 µL/min/mg, respectively. Further, the half-life at 1 μM in series [1] (setting [4]) is above 1.5 h; in series [2] (setting [4]), 1.32 h.

For the compound `CCOc1ccc(-c2nnc([C@H]3C[C@H](NC(=O)c4cccc5nc(O)c(O)nc45)C3)n2-c2ccccc2F)nc1` [Example 3, N-((1R,3r)-3-(5-(5-ethoxypyridin-2-yl)-4-(2-fluorophenyl)-4H-1,2,4-triazol-3-yl)cyclobutyl)-2,3-dihydroxyquinoxaline-5-carboxamide], the IC50 on TNKS2 came out at 71 nM; in the series with HEK293 (setting [3]) it was 1250 nM. For the same compound, the microsomal CLint at 1 μM was 9 µL/min/mg in series [1] (setting [4]) and 5 µL/min/mg in series [2] (setting [4]). Besides, the half-life at 1 μM in series [1] (setting [4]) and in series [2] (setting [4]) was above 1.5 h in each case.

Turning to `CCOc1ccc(-c2nnc([C@H]3C[C@H](NC(=O)c4cccc5c4ncc[n+]5[O-])C3)n2-c2ccccc2F)nc1` [Example 4, 5-(((1R,3r)-3-(5-(5-ethoxypyridin-2-yl)-4-(2-fluorophenyl)-4H-1,2,4-triazol-3-yl)cyclobutyl)carbamoyl)quinoxaline 1-oxide], the values for the IC50 at TNKS2 and in the series with HEK293 (setting [5]) were 1.6 nM and 2.5 nM, respectively. In addition, the microsomal CLint at 1 μM in series [1] (setting [4]) turned out to be 19 µL/min/mg; in series [2] (setting [4]) it was 5 µL/min/mg. Also, the half-life at 1 μM in series [1] (setting [4]) is 1.18 h; in series [2] (setting [4]), above 1.5 h.

Regarding `CCOc1ccc(-c2nnc([C@H]3C[C@H](NC(=O)c4cccc5nccnc45)C3)n2-c2ccccc2F)[n+]([O-])c1` [Example 5, 5-ethoxy-2-(4-(2-fluorophenyl)-5-((1r,3R)-3-(quinoxaline-5-carboxamido)cyclobutyl)-4H-1,2,4-triazol-3-yl)pyridine 1-oxide], the IC50 at TNKS2 amounted to 1.3 nM. The IC50 in the series with HEK293 (HEK293; read-out: Cellular IC50 HEK293) came to 0.75 nM. Besides, in series [1] (setting [6]), the “MLM Clint average” value is 15 μl/min/mg protein and the “MLM t1/2 average” value was above 1.5 h. Also, in series [2] (setting [6]), the “HLM Clint average” value worked out at 8 μl/min/mg protein and the “HLM t1/2 average” value is above 1.5 h.

For `CCOc1ccc(-c2nnc([C@H]3C[C@H](NC(=O)c4cccc5nccnc45)C3)n2-c2ccccc2F)nc1` [Example 154 of WO 2019/243822, reference compound], the values for the IC50 on TNKS2 and in the series with HEK293 (setting [5]) were 1.8 nM and 0.53 nM, respectively. Further, in series [1], the “clearance in MLM (in words)” value is reported as “high clearance”. The figures for the microsomal CLint at 1 μM in series [1] (setting [4]) and in series [2] (setting [4]) were 81 µL/min/mg and 40 µL/min/mg, respectively. Besides, the results for the half-life at 1 μM in series [1] (setting [4]) and in series [2] (setting [4]) were 0.283 h and 0.583 h, respectively. Moreover, in series [2], the “clearance in HLM (in words)” value is given as “moderate clearance”.
